Results published in patent US4713445A, “Renin inhibitors and treatments using them” (priority 1983, dated 1987).
*1 amine or outer side, *2 acyl side, *3 side chain or, on linkers, in order; H or OH if unused. Where a SMILES comes first, the peptide text is derived from it. Where no end group is shown, it is not given here. [ ]: non-standard residue; d: D form. The star is where a group is joined. Leuψ(CH2NH)ValIleHisOH = CC[C@H](C)[C@H](NC(=O)[C@@H](NC[C@H](CC(C)C)N*)C(C)C)C(=O)N[C@@H](Cc1c[nH]cn1)C(=O)O; X5 = CC(C)C[C@@H](CN[C@H](C(=O)N[C@@H](Cc1c[nH]cn1)C(=O)NCCCCCN)C(C)C)N*; X1 = CC(C)C[C@H](N[*:1])[C@@H](O)C[C@H](C(=O)[*:2])C(C)C; X4 = CC(C)C[C@H](N[*:1])[C@@H](O)CCC(=O)[*:2]; Boc = CC(C)(C)OC(=O)*

molecular target: T1, human renin (Homo sapiens, UniProt P00797); test: human renin-renin substrate reaction in vitro; radioimmunoassay of angiotensin-I released in human plasma; format: biochemical; conditions: Table 2; read-out: IC50 μM v/s human renin
T1 construct: angiotensin-I released from human renin substrate by human resin in human plasma; from tissue; host or cells: human plasma (containing EDTA)
T1 sequence (P00797 67-406): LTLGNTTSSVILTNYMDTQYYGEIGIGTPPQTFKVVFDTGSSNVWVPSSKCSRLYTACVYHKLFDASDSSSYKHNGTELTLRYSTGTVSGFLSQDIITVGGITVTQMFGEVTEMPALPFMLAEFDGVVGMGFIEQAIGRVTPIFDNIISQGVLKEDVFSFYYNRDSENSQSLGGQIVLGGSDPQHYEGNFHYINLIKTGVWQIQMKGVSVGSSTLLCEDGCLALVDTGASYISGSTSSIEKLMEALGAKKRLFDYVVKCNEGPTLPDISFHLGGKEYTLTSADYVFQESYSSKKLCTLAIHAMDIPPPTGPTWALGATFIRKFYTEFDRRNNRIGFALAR
From the text: Preliminary activity test results in the human […] substrate reaction in vitro are given, with comparative figures for the tetrapeptide analogue (III). […] The test results given herein are based on the methods described by J. A. Miller et al in Clinica Chimica Acta (1980) 101 5-15 and K. Poulsen and J. Jorgensen in J. Clin. Endocrinol. Metab. (1974) 39 816, and is based on the measurement, by radioimmunoassay, of angiotensin-I released from human renin substrate by human resin in human plasma. The inhibitor is dissolved in 0.01N HCl (10 μl) and added to hmman plasma (75 μl) containing EDTA, and angiotensin-I antibody (15 μl) in 3M-Tris/HCl buffer (pH 6.9). After incubation at 37° C. for 0-120 minutes, the enzymic reaction is quenched by the addition of ice-cold 0.25M Tris/HCl buffer (pH 7.4) containing 0.01% of bovine serum albumin. 125I-labelled angiotensin-I is added, followed by equilibration at 4° C. for 48 hours. Free and bound ligand are separated by the addition of dextrancoated charcoal, and the amount of bound radio-ligand determined in a gamma counter.

IC50 | Compound
0.0035 µM | CC[C@H](C)[C@H](NC(=O)[C@@H](C[C@H](O)[C@H](CC(C)C)NC(=O)[C@H](Cc1c[nH]cn1)NC(=O)[C@H](Cc1ccccc1)NC(=O)OC(C)(C)C)C(C)C)C(=O)N[C@@H](Cc1c[nH]cn1)C(=O)OC [Example LI] (Boc-FH[X1]IH-OMe)
0.3 µM | CC[C@H](C)[C@H](NC(=O)CC[C@H](O)[C@H](CC(C)C)NC(=O)[C@H](Cc1c[nH]cn1)NC(=O)[C@H](Cc1ccccc1)NC(=O)OC(C)(C)C)C(=O)N[C@@H](Cc1c[nH]cn1)C(=O)O [Example XLVIII] (Boc-FH[X4]IH-OH)
0.005 µM | CC[C@H](C)[C@H](NC(=O)[C@@H](C[C@H](O)[C@H](CC(C)C)NC(=O)[C@H](Cc1c[nH]cn1)NC(=O)[C@H](Cc1ccccc1)NC(=O)OC(C)(C)C)C(C)C)C(=O)OC [Example L]
29 µM | CC[C@H](C)[C@H](NC(=O)[C@@H](C[C@H](O)[C@@H](N)CC(C)C)C(C)C)C(=O)N[C@@H](Cc1c[nH]cn1)C(=O)O [XLIII]
5 µM | CC[C@H](C)[C@H](NC(=O)[C@@H](C[C@H](O)[C@H](CC(C)C)NC(=O)[C@H](Cc1c[nH]cn1)NC(=O)[C@@H](N)Cc1ccccc1)C(C)C)C(=O)N[C@@H](Cc1c[nH]cn1)C(=O)O [Example XLVII] (H-FH[X1]IH-OH)

same assay, conditions: Table 5; human renin-renin substrate reaction in vitro; read-out: IC50

IC50 | Compound
1.5 µM | CC(C)C[C@@H](CN([C@@H](CC(C)C)C(=O)N[C@H](C(=O)N[C@@H](Cc1ccc(O)cc1)C(=O)O)C(C)C)S(=O)(=O)c1ccccc1)NC(=O)[C@H](Cc1c[nH]cn1)NC(=O)[C@H](Cc1ccccc1)NC(=O)[C@@H]1CCCN1C(=O)[C@@H](N)Cc1c[nH]cn1 [Example III, H-His-Pro-Phe-His-Leu-reduced (SO2 Ph)-Leu-Val-Tyr-OH]
17 µM | CC(C)C[C@@H](CN[C@@H](CC(C)C)C(=O)N[C@H](C(=O)N[C@@H](Cc1ccc(O)cc1)C(=O)O)C(C)C)NC(=O)[C@H](Cc1c[nH]cn1)NC(=O)[C@H](Cc1ccccc1)NC(=O)[C@@H]1CCCN1 [Example II, H-Pro-Phe-His-Leu-reduced-Leu-Val-Tyr-OH]
0.05 µM | CC(C)[C@H](NC(=O)[C@H](Cc1ccccc1)NC[C@H](Cc1ccccc1)NC(=O)[C@H](Cc1c[nH]cn1)NC(=O)[C@H](Cc1ccccc1)NC(=O)[C@@H]1CCCN1C(=O)[C@H](Cc1c[nH]cn1)NC(=O)[C@@H]1CCCN1)C(=O)N[C@@H](Cc1ccc(O)cc1)C(=O)N[C@@H](CCCCN)C(=O)O [Example XI]
400 µM | HPFHLVIH [corresponding nonisosteric peptide, reference compound]
1 µM | CC(C)C[C@@H](CN[C@@H](CC(C)C)C(=O)N[C@H](C(=O)N[C@@H](Cc1ccc(O)cc1)C(=O)O)C(C)C)NC(=O)[C@H](Cc1c[nH]cn1)NC(=O)[C@H](Cc1ccccc1)NC(=O)[C@@H]1CCCN1C(=O)[C@H](N)Cc1c[nH]cn1 [Example IV, H-DHis-Pro-Phe-His-Leu-reduced-Leu-Val-Tyr-OH]
1 µM | CC(C)C[C@@H](CN[C@@H](CC(C)C)C(=O)N[C@H](C(=O)N[C@@H](Cc1ccc(O)cc1)C(=O)O)C(C)C)NC(=O)[C@H](Cc1c[nH]cn1)NC(=O)[C@H](Cc1ccccc1)NC(=O)[C@@H]1CCCN1C(=O)[C@@H](N)Cc1c[nH]cn1 [Example I, H-His-Pro-Phe-His-Leu-reduced-Leu-Val-Tyr-OH]
1.3 µM | CC(C)[C@H](NC(=O)[C@H](Cc1ccccc1)NC[C@H](Cc1ccccc1)NC(=O)[C@H](Cc1c[nH]cn1)NC(=O)[C@H](Cc1ccccc1)NC(=O)[C@@H]1CCCN1C(=O)[C@@H](N)Cc1c[nH]cn1)C(=O)N[C@@H](Cc1ccc(O)cc1)C(=O)O [Example VIII]

same assay, conditions: Table I; human renin in human plasma; read-out: IC50, μM human

IC50 | Compound
0.06 µM | CC[C@H](C)[C@H](NC(=O)[C@@H](NC[C@H](CC(C)C)NC(=O)[C@H](Cc1c[nH]cn1)NC(=O)[C@H](Cc1ccccc1)NC(=O)[C@@H]1CCCN1C(=O)[C@@H](N)Cc1c[nH]cn1)C(C)C)C(=O)N[C@@H](Cc1c[nH]cn1)C(=O)N[C@@H](CCCCN)C(=O)O [XXXI]
5.5 µM | CC[C@H](C)[C@H](NC(=O)[C@@H](NC[C@H](CC(C)C)NC(=O)[C@H](Cc1c[nH]cn1)NC(=O)[C@H](Cc1ccccc1)NC(=O)[C@H]1CCCN1C(=O)[C@@H](N)Cc1c[nH]cn1)C(C)C)C(=O)N[C@@H](Cc1c[nH]cn1)C(=O)O [XXXII] (H-H[dP]FH-{Leuψ(CH2NH)ValIleHisOH})
0.008 µM | CC[C@H](C)[C@H](NC(=O)[C@@H](NC[C@H](CC(C)C)NC(=O)[C@H](Cc1c[nH]cn1)NC(=O)[C@H](Cc1ccccc1)NC(=O)[C@@H]1CCCN1C(=O)[C@H](Cc1c[nH]cn1)NC(=O)[C@@H]1CCCN1)C(C)C)C(=O)N[C@@H](Cc1c[nH]cn1)C(=O)N[C@@H](CCCCN)C(=O)O [XIX]
1 µM | CC[C@H](C)[C@H](NC(=O)[C@@H](NC[C@H](CC(C)C)NC(=O)[C@H](Cc1c[nH]cn1)NC(=O)[C@H](Cc1ccccc1)NC(=O)[C@@H]1CCCN1C(=O)[C@@H](N)Cc1c[nH]cn1)C(C)C)C(=O)N[C@H](Cc1ccc(O)cc1)C(=O)O [XVI]
3 µM | CC(C)C[C@@H](CN[C@H](C(=O)N[C@@H](Cc1c[nH]cn1)C(=O)NCCCCCN)C(C)C)NC(=O)[C@H](Cc1c[nH]cn1)NC(=O)[C@H](Cc1ccccc1)NC(=O)[C@@H]1CCCN1C(=O)[C@H](Cc1c[nH]cn1)NC(=O)[C@@H]1CCCN1 [XVIII] (H-PHPFH-X5)
3 µM | CC[C@H](C)[C@H](NC(=O)[C@@H](NC[C@H](CC(C)C)NC(=O)[C@H](Cc1c[nH]cn1)NC(=O)[C@H](Cc1ccccc1)NC(=O)[C@@H]1CCCN1C(=O)[C@H](Cc1c[nH]cn1)NC(=O)[C@@H]1CCCN1)C(C)C)C(=O)N[C@@H](Cc1ccc(O)cc1)C(=O)NCCCCCN [XX]
0.01 µM | CC[C@H](C)[C@H](NC(=O)[C@@H](NC[C@H](CC(C)C)NC(=O)[C@H](Cc1c[nH]cn1)NC(=O)[C@H](Cc1ccccc1)NC(=O)[C@@H]1CCCN1C(=O)[C@H](Cc1c[nH]cn1)NC(=O)[C@@H]1CCCN1)C(C)C)C(=O)N[C@@H](Cc1c[nH]cn1)C(=O)O [XXII] (H-PHPFH-{Leuψ(CH2NH)ValIleHisOH})
0.2 µM | CC[C@H](C)[C@H](NC(=O)[C@@H](NC[C@H](CC(C)C)NC(=O)[C@H](Cc1c[nH]cn1)NC(=O)[C@H](Cc1ccccc1)NC(=O)[C@@H]1CCCN1C(=O)[C@@H](Cc1c[nH]cn1)NC(=O)[C@@H]1CCCN1)C(C)C)C(=O)N[C@@H](Cc1c[nH]cn1)C(=O)N[C@H](CCCCN)C(=O)O [Example XL]
0.025 µM | CC[C@H](C)[C@H](NC(=O)[C@@H](NC[C@H](CC(C)C)NC(=O)[C@H](Cc1c[nH]cn1)NC(=O)[C@H](Cc1ccccc1)NC(=O)[C@@H]1CCCN1C(=O)[C@H](Cc1c[nH]cn1)NC(=O)[C@H]1CCCN1)C(C)C)C(=O)N[C@@H](Cc1c[nH]cn1)C(=O)O [XXIII] (H-[dP]HPFH-{Leuψ(CH2NH)ValIleHisOH})
0.1 µM | CC[C@H](C)[C@H](NC(=O)[C@@H](NC[C@H](CC(C)C)NC(=O)[C@H](Cc1c[nH]cn1)NC(=O)[C@H](Cc1ccccc1)NC(=O)[C@@H]1CCCN1C(=O)[C@H](Cc1c[nH]cn1)NC(=O)[C@@H]1CCCN1)C(C)C)C(=O)N[C@@H](Cc1c[nH]cn1)C(=O)N[C@H](CCCCN)C(=O)O [XXXVIII]
